Experiment: Spectroscopic measurements (absorption, emission, quantum yield, extinction coefficient)
Format: physicochemical
[1] = BDNCA library, difference emission minus absorption
[2] = BDNCA library, extinction coefficient; in M-1 cm-1 (unit assumed)
[3] = BDNCA library, fluorescence emission
[4] = absorption maximum, BDNCA library
[5] = difference of emission and absorption maxima
[6] = extinction coefficient, BDNCA library; in M-1 cm-1 (unit assumed)
[7] = fluorescence emission maximum, BDNCA library

| SMILES | Qunt. Yield (BDNCA library) | Abs (BDNCA library, absorption) [nm] | Flu-Abs [1] | ε [2] | Flu [3] | Abs [4] [nm] | Flu-Abs [5] | ε [6] | Flu [7] | Qunt. Yield (quantum yield, BDNCA library) |
| --- | --- | --- | --- | --- | --- | --- | --- | --- | --- | --- |
| COC(=O)c1ccc(-c2ccc(/C=C/C3=[N+]4C(=C(c5ccc(NC(=O)CCl)cc5)c5cccn5[B-]4(F)F)C(C)=C3)cc2)cc1 [BDNCA-179] | 0.14 | 566 | 23 | 52,998 | 589 | – | – | – | – | – |
| CC1=CC(/C=C/C=C(c2ccccc2)c2ccccc2)=[N+]2C1=C(c1ccc(NC(=O)CCl)cc1)c1cccn1[B-]2(F)F [BDNCA-85] | 0.08 | 583 | 31 | 49,977 | 614 | – | – | – | – | – |
| CC1=CC(/C=C/c2ccccc2I)=[N+]2C1=C(c1ccc(NC(=O)CCl)cc1)c1cccn1[B-]2(F)F [BDNCA-384] | – | – | – | – | – | 555 | 23 | 60,686 | 578 | 0.11 |
| COc1cccc(/C=C/C2=[N+]3C(=C(c4ccc(NC(=O)CCl)cc4)c4cccn4[B-]3(F)F)C(C)=C2)c1F [BDNCA-314] | – | – | – | – | – | 554 | 21 | 52,998 | 575 | 0.11 |
| C=CCOc1ccccc1/C=C/C1=[N+]2C(=C(c3ccc(NC(=O)CCl)cc3)c3cccn3[B-]2(F)F)C(C)=C1 [BDNCA-202] | 0.13 | 561 | 24 | 57,666 | 585 | – | – | – | – | – |
| CC1=CC(/C=C/c2ccccc2C)=[N+]2C1=C(c1ccc(NC(=O)CCl)cc1)c1cccn1[B-]2(F)F [BDNCA-143] | 0.13 | 555 | 22 | 50,801 | 577 | – | – | – | – | – |
| CCOC(OCC)c1ccc(/C=C/C2=[N+]3C(=C(c4ccc(NC(=O)CCl)cc4)c4cccn4[B-]3(F)F)C(C)=C2)cc1 [BDNCA-49] | 0.03 | 564 | 17 | 20,046 | 581 | – | – | – | – | – |
| Cc1ccc(/C=C/c2cc(C)c3n2[B-](F)(F)[N+]2=CC=CC2=C3c2ccc(NC(=O)CCl)cc2)cc1[N+](=O)[O-] [BDNCA-255] | 0.10 | 556 | 19 | 62,059 | 575 | – | – | – | – | – |
| CC1=CC(/C=C/c2c3ccccc3c(C)c3ccccc23)=[N+]2C1=C(c1ccc(NC(=O)CCl)cc1)c1cccn1[B-]2(F)F [BDNCA-340] | – | – | – | – | – | 532 | 17 | 36,247 | 549 | 0.04 |
| CCOc1ccc(/C=C/C2=[N+]3C(=C(c4ccc(NC(=O)CCl)cc4)c4cccn4[B-]3(F)F)C(C)=C2)cc1 [BDNCA-429] | – | – | – | – | – | 566 | 33 | 64,531 | 599 | 0.14 |
| COc1cc(/C=C/c2cc(C)c3n2[B-](F)(F)[N+]2=CC=CC2=C3c2ccc(NC(=O)CCl)cc2)ccc1OCCN1CCCC1 [BDNCA-458] | – | – | – | – | – | 569 | 39 | 25,538 | 608 | 0.06 |
| CCOc1ccc(/C=C/C2=[N+]3C(=C(c4ccc(NC(=O)CCl)cc4)c4cccn4[B-]3(F)F)C(C)=C2)cc1OC [BDNCA-63] | 0.07 | 572 | 51 | 35,149 | 623 | – | – | – | – | – |
| COc1ccc(/C=C/C2=[N+]3C(=C(c4ccc(NC(=O)CCl)cc4)c4cccn4[B-]3(F)F)C(C)=C2)cc1C [BDNCA-335] | – | – | – | – | – | 569 | 33 | 41,739 | 602 | 0.08 |
| COc1cc(/C=C/C2=[N+]3C(=C(c4ccc(NC(=O)CCl)cc4)c4cccn4[B-]3(F)F)C(C)=C2)cc(Cl)c1O [BDNCA-29] | 0.01 | 567 | 30 | 25,812 | 597 | – | – | – | – | – |
| COc1ccc(Oc2cccc(/C=C/C3=[N+]4C(=C(c5ccc(NC(=O)CCl)cc5)c5cccn5[B-]4(F)F)C(C)=C3)c2)cc1 [BDNCA-42] | 0.08 | 556 | 21 | 54,645 | 577 | – | – | – | – | – |
| CC1=CC(/C=C/c2ccc(C(C)C)cc2)=[N+]2C1=C(c1ccc(NC(=O)CCl)cc1)c1cccn1[B-]2(F)F [BDNCA-19] | 0.13 | 558 | 22 | 61,236 | 580 | – | – | – | – | – |
| C=CCOc1ccc(/C=C/C2=[N+]3C(=C(c4ccc(NC(=O)CCl)cc4)c4cccn4[B-]3(F)F)C(C)=C2)cc1 [BDNCA-48] | 0.07 | 566 | 31 | 44,211 | 597 | – | – | – | – | – |
| CC1=CC(/C=C/c2ccccc2Oc2ccc(F)cc2)=[N+]2C1=C(c1ccc(NC(=O)CCl)cc1)c1cccn1[B-]2(F)F [BDNCA-341] | – | – | – | – | – | 558 | 22 | 58,764 | 580 | 0.10 |
